# pIC50: −log10 of the molar value.
# What was measured:
# PI3Kβ/α = test: pAKT in PC3 cell line; assay type: cell-based
# rheumatoid arthritis = conditions: 0.5-5 mg, twice a day, PO ref 27; cited from earlier work
# [1] = test system: human B and T cell cocultures; conditions: BioMAP T:B cocultures ref 10; cited from earlier work
smiles,measurement,setting,value
C[C@H](Nc1ncnc2nc[nH]c12)c1cc2cccc(Cl)c2c(=O)n1-c1ccccc1 [duvelisib],pIC50,PI3Kβ/α,[…]
same,efficacy in rheumatoid arthritis clinical trials,rheumatoid arthritis,efficacy could not be demonstrated
[O-][n+]1cccc(-c2nc3c(Cl)cccc3cc2[C@@H](Nc2ncnc3cccnc23)C(F)(F)F)c1 [seletalisib],IgG production,[1],attenuation of IgG production

# — article PMC6957347 (Pharmacology Research & Perspectives, 2020)
